Measured values taken from patent publication US11498930B2 (BLUERAY THERAPEUTICS (SHANGHAI) CO., LTD., priority 2018, dated 2022).
Like-named read-outs stand apart in the source and are kept apart here. Values belong to the compound of their own block, whether it stands above or below them.

How the values were obtained:
[1] = biological target: SHP2^E76A protein (Homo sapiens (Human), UniProt Q06124, E76A); assay: SHP2 enzyme activity inhibition experiment; type: biochemical
How it was run: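 Compounds tested at 10 concentrations in 3-fold serial dilution. IC50 from a four-parameter Hill-slope nonlinear fit of enzyme activity versus concentration.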

[2] = tested on: phosphorylation level of intracellular protein kinase (ERK) in MOLM13 cells; assay: Phosphorylated protein kinase (p-ERK) cell experiment (AlphaLISA); type: cell-based; details: Homo sapiens, MOLM-13, MOLM13 cells
Protocol: The inhibitory activities of the compounds on the phosphorylation level of intracellular protein kinase (ERK) were determined by AlphaLISA method.
Firstly, the cells were treated with the compounds. The compounds to be tested were subjected to 3-fold dilution with 100% DMSO, and a total of 9 different concentration gradients were set. MOLM13 cells were then seeded into 96-well plates at a density of 30,000 cells per well in a volume of 100 µL per well. […] of DMSO or the test compounds with different concentrations was then transferred into each well, setting two duplicates for each concentration, and the final concentration of DMSO was controlled at 0.5%.
Secondly, the cells were lysed. After 2 hours of cell treatment, the medium was removed, and the cells were washed 3 times with phosphate buffered saline. 50 µL of freshly prepared lysis buffer was added to each well, and the plates were shaken and kept at room temperature for 10 minutes.
Thirdly, the phosphorylated extracellular signal-regulated kinase (p-ERK) was detected by AlphaLISA@ SureFire® Ultra™ p-ERK 1/2 (Thr202/Tyr204) kit (Perkin Elmer, ALSU-PERK-A10K). 10 µL of the above lysate was transferred to a 384-well plate (Perkin Elmer, 6005350), and the phosphorylation level of the extracellular signal-regulated kinase of the sample was detected according to the product instructions. The signal was read using AlphaScreen detector on Spectra max i3 (Molecular Devices). The percentage of inhibition (%) was calculated by the following formula: Inhibition percentage(%)=(1−p-ERK signal of compound-treated cells/p-ERK signal of DMSO-treated cells)*100

[3] = tested on: MOLM-13 cells; assay: MOLM-13 cell proliferation experiment; type: cell-based; details: Homo sapiens
Protocol: After 3 days, 5 µL of CellTiter-Glo reagent (Promega, ZG7572) was added to each well, and the plates were kept at room temperature in the dark for 10 minutes. The […] was detected by Spectra max i3 (Molecular Devices). The relative growth rate of the treated cells was compared with that of DMSO control.

[4] = SHP2 enzyme activity, Tables 1.1 and 1.2, read-out: IC50
[5] = Table 4, read-out: SHP2 enzyme activity IC50
[6] = p-ERK, 2 hours of cell treatment, Tables 2.1 and 2.2, read-out: IC50
[7] = MOLM-13, 72 h, MOLM-13 cell proliferation, 3 days, Tables 3.1 and 3.2, read-out: IC50
[8] = MOLM-13, read-out: MOLM-13 cell proliferation IC50

SHP2^E76A protein, sequence (Q06124 whole entry E76A): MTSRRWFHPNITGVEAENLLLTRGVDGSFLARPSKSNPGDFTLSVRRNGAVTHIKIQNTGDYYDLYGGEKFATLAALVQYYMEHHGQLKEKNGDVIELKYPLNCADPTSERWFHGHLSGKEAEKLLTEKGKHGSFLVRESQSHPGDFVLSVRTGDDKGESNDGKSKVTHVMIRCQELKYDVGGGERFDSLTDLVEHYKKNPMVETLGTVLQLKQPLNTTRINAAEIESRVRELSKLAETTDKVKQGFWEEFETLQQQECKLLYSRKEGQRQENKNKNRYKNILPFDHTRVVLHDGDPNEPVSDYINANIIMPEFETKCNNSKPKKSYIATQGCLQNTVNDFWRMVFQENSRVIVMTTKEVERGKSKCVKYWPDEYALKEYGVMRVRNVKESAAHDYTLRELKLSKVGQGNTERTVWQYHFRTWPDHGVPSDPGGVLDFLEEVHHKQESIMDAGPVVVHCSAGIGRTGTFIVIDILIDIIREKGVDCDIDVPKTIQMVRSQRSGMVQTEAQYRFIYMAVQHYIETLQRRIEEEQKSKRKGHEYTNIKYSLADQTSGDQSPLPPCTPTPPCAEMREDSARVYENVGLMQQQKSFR

SMILES: CC1C[C@@H](N)C2(CCN(c3ncc(Sc4ccnc(Cl)c4Cl)c4nccn34)CC2)C1 (stereo partly drawn) [(1R)-8-(8-((2,3-dichloropyridin-4-yl)thio)imidazo[1,2-c]pyrimidin-5-yl)-3-methyl-8-azaspiro[4.5]decan-1-amine]
IC50 [1, 4]: < 100 nM
IC50 [1, 5]: 8 nM
IC50 ([2]; Table 4, read-out: p-ERK IC50): 34 nM
IC50 [2, 6]: < 100 nM
IC50 [3, 7]: < 100 nM
IC50 [3, 8]: 28 nM

SMILES: CC1C[C@@H](N)C2(CCN(c3ncc(Sc4ccnc(N)c4Cl)c4nccn34)CC2)C1 (stereo partly drawn) [(1R)-8-(8-((2-amino-3-chloropyridin-4-yl)thio)imidazo[1,2-c]pyrimidin-5-yl)-3-methyl-8-azaspiro[4.5]decan-1-amine]
IC50 [1, 4]: < 100 nM
IC50 [1, 5]: 32 nM
IC50 ([2]; Table 4, read-out: p-ERK IC50): 59 nM
IC50 [2, 6]: < 100 nM
IC50 [3, 7]: < 100 nM
IC50 [3, 8]: 54 nM

SMILES: CC1C[C@@H](N)C2(CCN(c3ncc(Sc4cc(N)nc(Cl)c4Cl)c4nncn34)CC2)C1 (stereo partly drawn) [(1R)-8-(8-((6-amino-2,3-dichloropyridin-4-yl)thio)-[1,2,4]triazolo[4,3-c]pyrimidin-5-yl)-3-methyl-8-azaspiro[4.5]decan-1-amine]
IC50 [1, 4]: < 100 nM
IC50 [1, 5]: 2 nM
IC50 ([2]; Table 4, read-out: p-ERK IC50): 47 nM
IC50 [2, 6]: < 100 nM
IC50 [3, 7]: < 100 nM
IC50 [3, 8]: 17 nM

SMILES: C[C@@H]1OCC2(CCN(c3ncc(Sc4cccc(Cl)c4Cl)c4nccn34)CC2)[C@@H]1N [(3S,4S)-8-(8-((2,3-dichlorophenyl)thio)imidazo[1,2-c]pyrimidin-5-yl)-3-methyl-2-oxa-8-azaspiro[4.5]decan-4-amine]
IC50 [1, 4]: < 100 nM
IC50 [1, 5]: 8 nM
IC50 ([2]; Table 4, read-out: p-ERK IC50): 103 nM
IC50 [2, 6]: 100 to 1000 nM
IC50 [3, 7]: < 100 nM
IC50 [3, 8]: 68 nM

SMILES: C[C@@H]1OCC2(CCN(c3ncc(Sc4ccnc(Cl)c4Cl)c4nncn34)CC2)[C@@H]1N [(3S,4S)-8-(8-((2,3-dichloropyridin-4-yl)thio)-[1,2,4]triazolo[4,3-c]pyrimidin-5-yl)-3-methyl-2-oxa-8-azaspiro[4.5]decan-4-amine]
IC50 [1, 4]: < 100 nM
IC50 [1, 5]: 5 nM
IC50 ([2]; Table 4, read-out: p-ERK IC50): 161 nM
IC50 [3, 8]: 133 nM

SMILES: C[C@@H]1OCC2(CCN(c3ncc(Sc4ccnc(Cl)c4Cl)c4nccn34)CC2)[C@@H]1N [(3S,4S)-8-(8-((2,3-dichloropyridin-4-yl)thio)imidazo[1,2-c]pyrimidin-5-yl)-3-methyl-2-oxa-8-azaspiro[4.5]decan-4-amine]
IC50 [1, 4]: < 100 nM
IC50 [1, 5]: 5 nM
IC50 ([2]; Table 4, read-out: p-ERK IC50): 35 nM
IC50 [2, 6]: < 100 nM
IC50 [3, 7]: < 100 nM
IC50 [3, 8]: 38 nM

SMILES: C[C@@H]1OCC2(CCN(c3ncc(Sc4ccnc(N)c4Cl)c4nccn34)CC2)[C@@H]1N [(3S,4S)-8-(8-((2-amino-3-chloropyridin-4-yl)thio)imidazo[1,2-c]pyrimidin-5-yl)-3-methyl-2-oxa-8-azaspiro[4.5]decan-4-amine]
IC50 [1, 4]: < 100 nM
IC50 [1, 5]: 20 nM
IC50 ([2]; Table 4, read-out: p-ERK IC50): 150 nM
IC50 [2, 6]: 100 to 1000 nM
IC50 [3, 7]: < 100 nM
IC50 [3, 8]: 76 nM

SMILES: C[C@@H]1OCC2(CCN(c3ncc(Sc4cc(N)ncc4Cl)c4nccn34)CC2)[C@@H]1N [(3S,4S)-8-(8-((2-amino-5-chloro-pyridin-4-yl)thio)imidazo[1,2-c]pyrimidin-5-yl)-3-methyl-2-oxa-8-azaspiro[4.5]decan-4-amine]
IC50 [1, 5]: 21 nM
IC50 ([2]; Table 4, read-out: p-ERK IC50): 94 nM
IC50 [2, 6]: < 100 nM
IC50 [3, 8]: 180 nM

SMILES: Cc1nccc(Sc2cnc(N3CCC4(CC3)CO[C@@H](C)[C@H]4N)n3cnnc23)c1Cl [(3S,4S)-8-(8-((3-chloro-2-methylpyridin-4-yl)thio)-[1,2,4]triazolo[4,3-c]pyrimidin-5-yl)-3-methyl-2-oxa-8-azaspiro[4.5]decan-4-amine]
IC50 [1, 4]: < 100 nM
IC50 [1, 5]: 17 nM
IC50 ([2]; Table 4, read-out: p-ERK IC50): 369 nM
IC50 [2, 6]: 100 to 1000 nM
IC50 [3, 8]: 277 nM

SMILES: Cc1nccc(Sc2cnc(N3CCC4(CC3)CO[C@@H](C)[C@H]4N)n3ccnc23)c1Cl [(3S,4S)-8-(8-((3-chloro-2-methylpyridin-4-yl)thio)imidazo[1,2-c]pyrimidin-5-yl)-3-methyl-2-oxa-8-azaspiro[4.5]decan-4-amine]
IC50 [1, 4]: < 100 nM
IC50 [1, 5]: 15 nM
IC50 ([2]; Table 4, read-out: p-ERK IC50): 19 nM
IC50 [2, 6]: < 100 nM
IC50 [3, 7]: < 100 nM
IC50 [3, 8]: 50 nM

SMILES: C[C@@H]1OCC2(CCN(c3ncc(Sc4cc(N)nc(Cl)c4Cl)c4nccn34)CC2)[C@@H]1N [(3S,4S)-8-(8-((6-amino-2,3-dichloropyridin-4-yl)thio)imidazo[1,2-c]pyrimidin-5-yl)-3-methyl-2-oxa-8-azaspiro[4.5]decan-4-amine]
IC50 [1, 4]: < 100 nM
IC50 [1, 5]: 10 nM
IC50 ([2]; Table 4, read-out: p-ERK IC50): 47 nM
IC50 [2, 6]: < 100 nM
IC50 [3, 7]: < 100 nM
IC50 [3, 8]: 50 nM

SMILES: Cc1nc(N)cc(Sc2cnc(N3CCC4(CC3)CO[C@@H](C)[C@H]4N)n3ccnc23)c1Cl [(3S,4S)-8-(8-((6-amino-3-chloro-2-methyl-pyridin-4-yl)thio)imidazo[1,2-c]pyrimidin-5-yl)-3-methyl-2-oxa-8-azaspiro[4.5]decan-4-amine]
IC50 [1, 4]: < 100 nM
IC50 [1, 5]: 16 nM
IC50 ([2]; Table 4, read-out: p-ERK IC50): 43 nM
IC50 [2, 6]: < 100 nM
IC50 [3, 7]: < 100 nM
IC50 [3, 8]: 42 nM

SMILES: N[C@@H]1CCCCC12CCN(c1ncc(Sc3cccc(Cl)c3Cl)c3nncn13)CC2 [(R)-3-(8-((2,3-dichlorophenyl)thio)-[1,2,4]triazolo[4,3-c]pyrimidin-5-yl)-3-azaspiro[5.5]undecan-7-amine]
IC50 [1, 4]: 100 to 1000 nM
IC50 [2, 6]: 1000 to 10000 nM
IC50 [3, 7]: 1000 to 10000 nM

SMILES: N[C@@H]1CCC12CCN(c1ncc(Sc3cccc(Cl)c3Cl)c3nccn13)CC2 [(R)-7-(8-((2,3-dichlorophenyl)thio)imidazo[1,2-c]pyrimidin-5-yl)-7-azaspiro[3.5]nonan-1-amine]
IC50 [1, 4]: 100 to 1000 nM
IC50 [2, 6]: 100 to 1000 nM
IC50 [3, 7]: 100 to 1000 nM

IC50 [1, 4]: < 100 nM
IC50 [2, 6]: 100 to 1000 nM
IC50 [3, 7]: 100 to 1000 nM
SMILES: Cn1ccc2c(Sc3cnc(N4CCC5(CCC[C@H]5N)CC4)n4ccnc34)ccnc21 [(R)-8-(8-((1-methyl-1H-pyrrolo[2,3-b]pyridin-4-yl)thio)imidazo[1,2-c]pyrimidin-5-yl)-8-azaspiro[4.5]decan-1-amine]

IC50 [1, 4]: < 100 nM
IC50 [2, 6]: 100 to 1000 nM
IC50 [3, 7]: 100 to 1000 nM
SMILES: N[C@@H]1CC(F)(F)CC12CCN(c1ncc(Sc3cccc(Cl)c3Cl)c3nccn13)CC2 [(R)-8-(8-((2,3-dichlorophenyl)thio)imidazo[1,2-c]pyrimidin-5-yl)-3,3-difluoro-8-azaspiro[4.5]decan-1-amine]

IC50 [1, 4]: < 100 nM
IC50 [2, 6]: 100 to 1000 nM
IC50 [3, 7]: 100 to 1000 nM
SMILES: N[C@@H]1CCCC12CCN(c1ncc(Sc3cccc(Cl)c3Cl)c3nccn13)CC2 [(R)-8-(8-((2,3-dichlorophenyl)thio)imidazo[1,2-c]pyrimidin-5-yl)-8-azaspiro[4.5]decan-1-amine]

IC50 [1, 4]: < 100 nM
IC50 [2, 6]: 1000 to 10000 nM
IC50 [3, 7]: 100 to 1000 nM
SMILES: N[C@@H]1CCCC12CCN(c1ncc(Sc3ccnc(Cl)c3Cl)c3nncn13)CC2 [(R)-8-(8-((2,3-dichloropyridin-4-yl)thio)-[1,2,4]triazolo[4,3-c]pyrimidin-5-yl)-8-azaspiro[4.5]decan-1-amine]

SMILES: N[C@@H]1CCCC12CCN(c1ncc(Sc3ccnc(Cl)c3Cl)c3nccn13)CC2 [(R)-8-(8-((2,3-dichloropyridin-4-yl)thio)imidazo[1,2-c]pyrimidin-5-yl)-8-azaspiro[4.5]decan-1-amine]
IC50 [1, 4]: < 100 nM
IC50 [1, 5]: 57 nM
IC50 ([2]; Table 4, read-out: p-ERK IC50): 159 nM
IC50 [2, 6]: 100 to 1000 nM
IC50 [3, 7]: < 100 nM
IC50 [3, 8]: 42 nM
